Reference: ChEMBL document CHEMBL1132687, “Synthesis and enantiopharmacology of new AMPA-kainate receptor agonists” (J Med Chem, 1999)
Activity calls are given as the source filed them. The calls are words filed in the database; no cut-off is given here.

Legend:
[1] = The dissociation constant at ammonium group in water at 20 degree Centigrade; type: ADME; conditions: read-out: pKa3
physchem [2] = conditions: water
Description: The dissociation constant at omega-carboxyl or hydroxyl group in water at 20 degree Centigrade.

Rattus norvegicus [3] = organism: Rattus norvegicus; experiment: Electropharmacology on rat cortical slice preparation for EAA-evoked depolarizations; Depolarization evoked by the compound is partially antagonised by 5 uM of NBQX and fully antagonised by 20 uM of NBQX.; type: functional
physchem [4] = conditions: water; remark: listed apart in the source
Rattus norvegicus [5] = organism: Rattus norvegicus; experiment: Electropharmacology on rat cortical slice preparation for EAA-evoked depolarizations; Depolarization evoked by the compound is antagonised by 10 uM of CPP.; type: functional
physchem [6] = conditions: water; remark: listed apart in the source
[7] = molecular target: Glutamate receptor ionotropic, AMPA (Rattus norvegicus, UniProt P19490+P19491+P19492+P19493)
Description: Binding affinity against Ionotropic glutamate receptor AMPA using [3H]AMPA as radioligand.

[8] = molecular target: Glutamate receptor ionotropic, kainate; experiment: Binding affinity against Ionotropic glutamate receptor kainate using [3H]KAIN as radioligand.; type: protein-complex assay
CHO = experiment: Affinity at Metabotropic glutamate receptor (Glu1-alpha,Glu2,Glu4a) expressed in CHO cells; Not significant activity up to 1 mM concentration; type: cell-based
Glutamate NMDA receptor = experiment: Binding affinity against N-methyl-D-aspartate glutamate receptor using [3H]-CPP as radioligand.; type: protein-complex assay
Rattus norvegicus [9] = organism: Rattus norvegicus; experiment: Electropharmacology on rat cortical slice preparation for EAA-evoked depolarizations;Depolarization evoked by the compound is fully antagonised by 5 uM of NBQX.; type: functional
Rattus norvegicus [10] = organism: Rattus norvegicus; experiment: Electropharmacology on rat cortical slice preparation for EAA-evoked depolarizations;; type: functional
Rattus norvegicus [11] = organism: Rattus norvegicus; experiment: Electropharmacology on rat cortical slice preparation for EAA-evoked depolarizations; Depolarization evoked by the compound is fully antagonised by 5 uM of NBQX.; type: functional
Rattus norvegicus [12] = organism: Rattus norvegicus; experiment: Electropharmacology on rat cortical slice preparation for EAA-evoked depolarizations;Depolarization evoked by the compound is partially antagonised by 5 uM of NBQX and fully antagonised by 20 uM of NBQX.; type: functional
[13] = The dissociation constant at omega-carboxyl or hydroxyl group iin water at 20 degree Centigrade. (evaluated by Uyeno., Y et. al.); type: ADME; conditions: read-out: pKa2
[14] = The dissociation constant at ammonium group in water at 20 degree Centigrade. (evaluated by Uyeno., Y et. al.); type: ADME; conditions: read-out: pKa3
[15] = The dissociation constant at alpha-carboxyl group in water at 20 degree Centigrade. (evaluated by Uyeno., Y et. al.); type: ADME; conditions: read-out: pKa1
Rattus norvegicus [16] = organism: Rattus norvegicus; experiment: Electropharmacology on rat cortical slice preparation for EAA-evoked depolarizations; Depolarization evoked by the compound is not antagonised by 5 uM of NBQX but fully antagonised by 20 uM of NBQX.; type: functional

`O=C(O)C1=NO[C@H]2CN[C@H](C(=O)O)[C@@H]12` (racemic) [listing 1 of 2 here] gave a pKa [1] of 7.4, a pKa (physchem [2]) of 2.15 and an EC50 (Rattus norvegicus [3]) of 5.4 µM. For the same compound, the pKa (physchem [4]) was less than 2.
`O=C1NO[C@H]2[C@@H]1CN[C@@H]2C(=O)O` (racemic) gave an EC50 (Rattus norvegicus [5]) of 1000 µM, a pKa (physchem [2]) of 5.1 and a pKa (physchem [6]) of 8.3. The IC50 [7] was 34.9 µM, the IC50 [8] was 45.3 µM and the Activity (CHO) was “inactive”. The IC50 (Glutamate NMDA receptor) was greater than 100 µM and the pKa (physchem [4]) was 2.
For `O=C1NO[C@H]2CN[C@H](C(=O)O)[C@@H]12` (racemic), the EC50 (Rattus norvegicus [5]) was 1000 µM, the IC50 [7] was 42.6 µM and the IC50 [8] was 7.9 µM. For the same compound, the Activity (CHO) was “inactive” and the IC50 (Glutamate NMDA receptor) was greater than 100 µM.
For `O=C(O)C1=NO[C@H]2[C@@H]1CN[C@@H]2C(=O)O` (racemic) [listing 1 of 2 here], the EC50 (Rattus norvegicus [9]) was 284 µM, the pKa (physchem [2]) was 2.6 and the pKa (physchem [6]) was 7.3. It also gave a pKa (physchem [4]) of less than 2.
For `O=C(O)C1=NO[C@H]2CN[C@H](C(=O)O)[C@@H]12` (racemic) [listing 2 of 2 here], the Activity (CHO) was “inactive”.
For `O=C(O)C1=NO[C@H]2[C@@H]1CN[C@@H]2C(=O)O` (racemic) [listing 2 of 2 here], the Activity (CHO) was “inactive”.
For `O=C(O)C1=NO[C@H]2CN[C@H](C(=O)O)[C@@H]12` (stereo in doubt; (+)-6) [listing 1 of 2 here], the IC50 [7] was greater than 100 µM, the EC50 (Rattus norvegicus [10]) was greater than 1000 µM and the IC50 [8] was greater than 100 µM.
In the case of `O=C(O)C1=NO[C@H]2CN[C@H](C(=O)O)[C@@H]12` (stereo in doubt; (+)-6) [listing 2 of 2 here], the Activity (CHO) is reported as “inactive”.
`O=C(O)C1=NO[C@H]2[C@@H]1CN[C@@H]2C(=O)O` (stereo in doubt; (+)-7) [listing 1 of 2 here] showed an IC50 [7] of 11.2 µM, an IC50 [8] of 67 µM and an EC50 (Rattus norvegicus [11]) of 251 µM.
In the case of `O=C(O)C1=NO[C@H]2[C@@H]1CN[C@@H]2C(=O)O` (stereo in doubt; (+)-7) [listing 2 of 2 here], the Activity (CHO) is reported as “inactive”.
For `O=C(O)C1=NO[C@H]2CN[C@H](C(=O)O)[C@@H]12` (stereo in doubt; (-)-6) [listing 1 of 2 here], the EC50 (Rattus norvegicus [12]) was 3.5 µM, the IC50 [7] was 0.54 µM and the IC50 [8] was 0.23 µM.
With `O=C(O)C1=NO[C@H]2CN[C@H](C(=O)O)[C@@H]12` (stereo in doubt; (-)-6) [listing 2 of 2 here] the Activity (CHO) was “inactive”.
Compound `O=C(O)C1=NO[C@H]2[C@@H]1CN[C@@H]2C(=O)O` (stereo in doubt; (-)-7) [listing 1 of 2 here] has an IC50 [7] greater than 100 µM, an EC50 (Rattus norvegicus [10]) greater than 1000 µM and an IC50 [8] greater than 100 µM. The IC50 (Glutamate NMDA receptor) was greater than 100 µM.
With `O=C(O)C1=NO[C@H]2[C@@H]1CN[C@@H]2C(=O)O` (stereo in doubt; (-)-7) [listing 2 of 2 here] the Activity (CHO) was “inactive”.
Work on `N[C@@H](CCC(=O)O)C(=O)O` [GLUTAMIC ACID] yielded a pKa [13] of 4.21, a pKa [14] of 9.54 and a pKa [15] of 2.39.
For `C=C(C)[C@H]1CN[C@H](C(=O)O)[C@H]1CC(=O)O` [KAINIC ACID], the EC50 (Rattus norvegicus [16]) was 25 µM.
In the case of `CN[C@H](CC(=O)O)C(=O)O` [N-METHYL-D-ASPARTIC ACID (NMDA)], the EC50 (Rattus norvegicus [5]) is reported as 11 µM.
